Test system: selected test plants
Assay: Post-emergence action in a different test arrangement (Table B3)
Type: in vivo
Design: key to Post-emergence action (different test arrangement), Nasturtium / Post-emergence action (different test arrangement), Stellaria / Post-emergence action (different test arrangement), Solanum: 10=total damage; 0=no action; Ratings of from 10 to 7 (especially from 10 to 8) indicate good to very good herbicidal action
Conditions: 250 g a.i./ha

Compound | Post-emergence action (different test arrangement), Amaranthus | Post-emergence action (different test arrangement), Nasturtium | Post-emergence action (different test arrangement), Solanum | Post-emergence action (different test arrangement), Stellaria
CN1CCN(Cc2nc(C(F)(F)F)ccc2C(=O)c2cnn(C)c2O)C1=O [Compound B1.211] | 9 | 10 | 9 | 8
CC(C)N1CC(=O)N(Cc2nc(C(F)(F)F)ccc2C(=O)C2=C(O)CCCC2=O)C1=O [Compound A1.175] | 7 | 8 | 9 | 7
CC1CCN(Cc2nc(C(F)(F)F)ccc2C(=O)C2=C(O)CCCC2=O)C1=O (stereo not shown) [Compound A1.222] | 9 | 10 | 9 | 9
CN1CCN(Cc2nc(C(F)(F)F)ccc2C(=O)C2=C(O)CCCC2=O)C1=O [Compound A1.213] | 9 | 9 | 9 | 9
Cc1nc(C)n(Cc2nc(C(F)(F)F)ccc2C(=O)C2=C(O)CCCC2=O)c(=O)c1Cl [Compound A1.209] | 7 | 9 | 9 | 7
Cc1nn(Cc2nc(C(F)(F)F)ccc2C(=O)C2=C(O)CCCC2=O)c(=O)o1 [Compound A1.097, 3-[3-(2-Hydroxy-6-oxo-cyclohex-1-enecarbonyl)-6-trifluoromethyl-pyridin-2-ylmethyl]-5-methyl-3H-[1.3.4]oxadiazol-2-one] | 9 | 10 | 9 | 9
COc1nn(Cc2nc(C(F)(F)F)ccc2C(=O)C2=C(O)CCCC2=O)c(=O)n1C [Compound A1.025] | 9 | 9 | 9 | 9
